# Measurements: patent US20100130736A1, “METHODS OF CREATING AN INDEX” (priority 2008, published 2010)
# Where two headings read alike, the source gives them in different places. Where no end group is shown, it is not given here.
# Columns and labels:
# Type in all cases: cell-based, human
# A549 cells [1] = assay: Epic DMR agonist mode (primary profile, target panning) in A549 cells; conditions: for ligand-induced DMR signal (second ligand panel): FIG. 8: 40 μM pinacidil, 250 μg/ml poly (I:C), 8 μM PMA, 16 μM forskolin
# Source text: (§1) Epic® wavelength interrogation system (Corning Inc., Corning, N.Y.) was used for whole cell sensing. This system consists of a temperature-control unit, an optical detection unit, and an on-board liquid handling unit with robotics. The detection unit is centered on integrated fiber optics, and enables kinetic measures of cellular responses with a time interval of ±15 sec.
# (§2) For biosensor cellular assays, molecule solutions were made by diluting the stored concentrated solutions with the HBSS (1× Hanks balanced salt solution, plus 20 mM Hepes, pH 7.1), and transferred into a 384 well polypropylene molecule storage plate to prepare a molecule source plate. Both molecule and marker source plates were made separately when a two-step assay was performed. In parallel, the cells were washed twice with the HBSS and maintained in 30 μl of the HBSS to prepare a cell assay plate. Both the cell assay plate and the molecule and marker source plate(s) were then incubated in the hotel of the reader system. After ˜1 hr of incubation the baseline wavelengths of all biosensors in the cell assay microplate were recorded and normalized to zero. Afterwards, a 2 to 10 minute continuous recording was carried out to establish a baseline, and to ensure that the cells reached a steady state. Cellular responses were then triggered by pipetting 10 μl of the marker solutions into the cell assay plate using the on-board liquid handler.
# First, a panel of ligands targeting GPCRs, each at 10 μM concentration, was chosen, and examined their actions on the A549 cells using DMR measurements with the Epic® system. The ligand panel included the four P2Y agonists ADP, […], UTP and UDP, the adenosine receptor agonist adenosine, the calcium sensing receptor agonist spermine, the histamine receptor agonist histamine, the adrenergic receptor agonist epinephrine, the free fatty acid receptor agonist elaidic acid, the lipoxin receptor agonist lipoxin A4, the bradykinin receptor agonist bradykinin, the adrenodullin receptor agonist adrenodullin, the PAR1 agonist SFLLR-amide, the angiotensin receptor agonist angiotensin, the neuropeptide Y receptor agonist neuropeptide Y, and the PAR2 agonist SLIGKV-amide.
# Next, a second ligand panel was chosen, and examined their actions on the A549 cells using DMR measures with the Epic® system. The panel included the protein kinase C activator PMA, the endogenous KATP ion channel activator pinacidil, the adenylyl cyclase activator forskolin, and endogenous Toll-like receptor (TLR) activator poly(I:C).
# A DMR index was generated for four ligand molecules. Quiescent A431 and proliferating A549 cells were separately exposed to the ligand molecules for about 1 hr to generate their primary profiles, followed by stimulation with each marker at a fixed concentration (as mentioned in FIGS. 7 and 8) for another 1 hr or so to generate secondary profiles of the molecule against the panels of markers in both types of cells. Next, one or more specific DMR parameters were chosen as a readout for plotting the DMR index of the molecule. For the pinacidil DMR response in A549, the amplitude of the N-DMR (i.e., the amplitude 30 min after stimulation) was chosen. For the poly(I:C) DMR response in A549, the amplitude of the late DMR (i.e., the amplitude 50 min after stimulation) was chosen. For the PMA response in A549, the late DMR amplitude (i.e., the amplitude 50 min after stimulation) was chosen. For the SLIGKV-amide DMR response in A549, the P-DMR amplitude (i.e., the amplitude 20 min after stimulation) was chosen. For the forskolin response in A549 cells, the P-DMR amplitude (i.e., the amplitude 50 min after stimulation) was chosen. For the histamine response in A549, both the early DMR amplitude (i.e., amplitude 10 min after stimulation) and the late response (i.e., the amplitude 30 min after stimulation) were chosen. For the epinephrine response in A431, the P-DMR amplitude (i.e., the amplitude 50 min after stimulation) was chosen.
# quiescent A431 cells = assay: Epic label-free DMR two-step assay, antagonist mode: modulation of marker-induced DMR signals in quiescent A431 cells
# Protocol: (§3) Cells were typically grown using ˜1 to 2×10^4 cells per well at passage 3 to 15 suspended in 50 μl of the corresponding culture medium in the biosensor microplate, and were cultured at 37° C. under air/5% CO2 for ˜1 day. Except for A431, which was subject to ˜20 hr starvation through continuous culture in the serum-free DMEM, the other cell types were directly assayed without starvation. The confluency for all cells at the time of assays was ˜95% to 100%.
# as §1, §2
# To study the influence of molecules on a marker-induced response, a second stimulation with the marker at a fixed dose (typically at EC80 or EC100) was applied. The resonant wavelengths of all biosensors in the microplate were normalized again to establish a second baseline, right before the second stimulation. The two stimulations were usually separated by ˜1 hr. All studies were carried out at a controlled temperature (28° C.). At least two independent sets of experiments, each with at least three replicates, were performed. […]
# A first panel of markers was contacted with quiescent A431 cells at concentrations close to each of the marker's EC80 or EC100, and DMR measurements were obtained with and EPIC® system. This panel of markers was selected from a library of markers identified in A431 cells using Epic® cellular assays. This panel included epidermal growth factor (EGF), epinephrine, nicotinic acid, and histamine. Each of these markers leads to a wide array of cell signaling. […] Each DMR signal represents an averaged response of 4 replicates.
# A549 cells [2] = assay: Epic label-free DMR two-step assay, antagonist mode: modulation of marker-induced DMR signals in A549 cells
# Protocol: as §3, §1, §2
# To study the influence of molecules on a marker-induced response, a second stimulation with the marker at a fixed dose (typically at EC80 or EC100) was applied. The resonant wavelengths of all biosensors in the microplate were normalized again to establish a second baseline, right before the second stimulation. The two stimulations were usually separated by ˜1 hr. All studies were carried out at a controlled temperature (28° C.). At least two independent sets of experiments, each with at least three replicates, were performed.
# A second panel of markers was contacted with A549 cells at concentrations close to each of the marker's EC80 or EC100, and DMR measurements were obtained with and EPIC® system. This panel included poly(I:C), SLIGKV-amide, pinacidil, PMA, histamine, and forskolin. Each of these markers also leads to a wide array of cell signaling. Using Epic® cellular assays in conjunction with chemical biology and cell biology approach similar to the EGFR DMR mentioned above, we have determined the pathway(s) and network interaction(s) that is accounted for each marker-induced DMR signal in A549 cells. The main observations are summarized below. Poly(I:C) is an agonist for endogenous Toll-like receptor(s) in A549, whose activation leads to IKK pathway and AKT pathway. SLIGKV-amide is an agonist for endogenous protease activated receptor subtype 2 (PAR2) in A549, whose activation leads to Gq-, Gi- and G12/13-mediated signaling. Pinacidil is an opener for endogenous ATP-sensitive potassium (KATP) ion channel in A549, whose activation leads to Rho- and JAK-mediated signaling. PMA is an activator for protein kinase C (PKC), whose activation leads to PKC pathway and degranulation. Histamine is a natural agonist for endogenous histamine receptors (dominantly H1R, and possibly H3R), whose activation leads to dual signaling, possibly through Gq and Gi mediated signaling in A549. Forskolin is an activator for adenylyl cyclases, whose activation leads to cAMP-PKA pathway in A549. […] Each DMR signal represents an averaged response of 4 replicates. […]
# [3] = A549, each ligand at 10 μM, FIGS. 3A and 3B
# [4] = quiescent A431, 32 nM EGF, ligand 10 μM, about 1 hr pretreatment
# [5] = ~1 hr pretreatment with the molecule
molecule,measurement,setting,value
O=c1ccn([C@@H]2O[C@H](COP(=O)(O)OP(=O)(O)O)[C@@H](O)[C@H]2O)c(=O)[nH]1 [UDP],ligand-induced DMR signal (GPCR ligand panel),A549 cells [1]; [3],robust DMR signals
SFLLR-amide,ligand-induced DMR signal (GPCR ligand panel),A549 cells [1]; [3],robust DMR signals
CC(N/C(=N\C#N)Nc1ccncc1)C(C)(C)C (stereo not shown) [pinacidil],ligand-induced DMR signal (second ligand panel),A549 cells [1]; A549,robust DMR signals
CC(=O)c1c(O)c(C)c(O)c(Cc2c(O)c3c(c(C(=O)/C=C/c4ccccc4)c2O)OC(C)(C)C=C3)c1O [rottlerin],effect on the N-DMR of the EGF DMR signal (in words),quiescent A431 cells; [4],part of the early N-DMR event
same,effect on the early P-DMR event of the EGF DMR signal (in words),quiescent A431 cells; [4],specifically caused the truncation
"CCCCCCCCCCCCCC(=O)O[C@@H]1[C@@H](C)[C@@]2(O)[C@@H](C=C(CO)C[C@]3(O)C(=O)C(C)=C[C@@H]23)[C@@H]2C(C)(C)[C@]12OC(C)=O [PMA, Phorbol 12-myristate 13-acetate]",ligand-induced DMR signal (second ligand panel),A549 cells [1]; A549,robust DMR signals
NCCCNCCCCNCCCN [spermine],ligand-induced DMR signal (GPCR ligand panel),A549 cells [1]; [3],robust DMR signals
SLIGKV-NH2,ligand-induced DMR signal (GPCR ligand panel),A549 cells [1]; [3],robust DMR signals
Nc1ncnc2c1ncn2[C@@H]1O[C@H](CO)[C@@H](O)[C@H]1O [adenosine],ligand-induced DMR signal (GPCR ligand panel),A549 cells [1]; [3],robust DMR signals
N#CC(=C(/N)Sc1ccccc1N)/C(C#N)=C(\N)Sc1ccccc1N [U0126],effect on the N-DMR of the EGF DMR signal (in words),quiescent A431 cells,significantly and selectively attenuated
same,effect on the RP-DMR of the EGF DMR signal (in words),quiescent A431 cells,significantly and selectively attenuated
CCCCC[C@H](O)/C=C/C=C\C=C\C=C\[C@@H](O)[C@@H](O)CCCC(=O)O [lipoxin A4],ligand-induced DMR signal (GPCR ligand panel),A549 cells [1]; [3],robust DMR signals
NCCc1c[nH]cn1 [histamine],ligand-induced DMR signal (GPCR ligand panel),A549 cells [1]; [3],robust DMR signals
O=S(=O)(c1cccc2cnccc12)N1CCCNCC1 [HA1077],modulation of the PMA-induced DMR response,"A549 cells [2]; molecule 10 μM, 8 μM PMA, late DMR amplitude 50 min after stimulation",+36%
same,modulation of the SLIGKV-amide-induced DMR response,"A549 cells [2]; molecule 10 μM, 8 μM SLIGKV-amide, P-DMR amplitude 20 min after stimulation",+22%
same,modulation of the histamine-induced DMR response (early P-DMR),"A549 cells [2]; molecule 10 μM, 10 μM histamine, amplitude 10 min after stimulation",+26%
same,modulation of the histamine-induced DMR response (late P-DMR),"A549 cells [2]; molecule 10 μM, 10 μM histamine, amplitude 30 min after stimulation",+55%
same,modulation of the forskolin-induced DMR response,"A549 cells [2]; molecule 10 μM, 16 μM forskolin, P-DMR amplitude 50 min after stimulation",+18%
same,modulation of the poly(I:C)-induced DMR response,"A549 cells [2]; molecule 10 μM, 250 μg/ml poly(I:C), late DMR amplitude 50 min after stimulation",+18%
same,effect on the PMA response (in words),A549 cells [2]; [5],significantly potentiated
same,effect on the histamine response (in words),A549 cells [2]; [5],significantly potentiated
same,effect on the pinacidil response (in words),A549 cells [2]; [5],almost completely attenuated
same,primary profile of the molecule (DMR signal triggered),"A549 cells [1]; A549, 10 μM, about 1 hr",N-DMR signal
neuropeptide Y: neuropeptide Y receptor agonist,ligand-induced DMR signal (GPCR ligand panel),A549 cells [1]; [3],robust DMR signals
CCCCCCCC/C=C/CCCCCCCC(=O)O [elaidic acid],ligand-induced DMR signal (GPCR ligand panel),A549 cells [1]; [3],robust DMR signals
O=c1ccn([C@@H]2O[C@H](COP(=O)(O)OP(=O)(O)OP(=O)(O)O)[C@@H](O)[C@H]2O)c(=O)[nH]1 [UTP],ligand-induced DMR signal (GPCR ligand panel),A549 cells [1]; [3],robust DMR signals
COc1cc2ncnc(Nc3cccc(Cl)c3)c2cc1OC [AG1478],effect on the EGF response / DMR signal induced by EGF (in words),quiescent A431 cells; [4],almost completely blocked
"adrenodullin: adrenodullin receptor agonist (YRQSMNNFQGLRSFGCRFGTCTVQKLAHQIYQFTDKDKDNVAPRSKISPQGY; ends and bridges not checked; cysteine pairing not given here; UniProt P35318 95-146, looked up)",ligand-induced DMR signal (GPCR ligand panel),A549 cells [1]; [3],robust DMR signals
C#Cc1cccc(Nc2ncnc3cc(OC)c(OC)cc23)c1 [BML-265],effect on the EGF response / DMR signal induced by EGF (in words),quiescent A431 cells; [4],almost completely blocked
angiotensin,ligand-induced DMR signal (GPCR ligand panel),A549 cells [1]; [3],robust DMR signals
Nc1ncnc2c1ncn2[C@@H]1O[C@H](COP(=O)(O)OP(=O)(O)OP(=O)(O)O)[C@@H](O)[C@H]1O [AT],ligand-induced DMR signal (GPCR ligand panel),A549 cells [1]; [3],robust DMR signals
poly(I:C),ligand-induced DMR signal (second ligand panel),A549 cells [1]; A549,robust DMR signals
Nc1ncnc2c1ncn2[C@@H]1O[C@H](COP(=O)(O)OP(=O)(O)O)[C@@H](O)[C@H]1O [ADP],ligand-induced DMR signal (GPCR ligand panel),A549 cells [1]; [3],robust DMR signals
CNC[C@H](O)c1ccc(O)c(O)c1 [epinephrine],ligand-induced DMR signal (GPCR ligand panel),A549 cells [1],robust DMR signals
